Values after ≈ are worked out from the molar mass of the structure shown.
Tests used:
[1] = biological target: P. aeruginosa BC (Pseudomonas aeruginosa, UniProt P37798); experiment: P. aeruginosa BC enzyme assay; details: relative to parent 4a
[2] = system: E. coli (ATCC 25922); experiment: Bacterial Cytological Profiling; type: cell-based; details: ~3-fold the MIC for 2 hours (for 1); fluorescence microscopy
[3] = system: E. coli (ΔtolC); type: cell-based; details: for MIC E. coli (ΔtolC): knockout of efflux pump component TolC; for MIC E. coli (ΔtolC) +PMBN: PMBN 8 μg/mL
[4] = system: P. aeruginosa (ΔmexAB, etc.); type: cell-based; details: knockouts of MexAB-OprM, MexCD-OprJ, MexEF-OprN
[5] = system: P. aeruginosa mexT mutants; type: cell-based; details: for potency reduction by any mexT mutation: any of the three individual mexT mutations
[6] = pKa; type: physicochemical

Sequence of P. aeruginosa BC (P37798 whole entry): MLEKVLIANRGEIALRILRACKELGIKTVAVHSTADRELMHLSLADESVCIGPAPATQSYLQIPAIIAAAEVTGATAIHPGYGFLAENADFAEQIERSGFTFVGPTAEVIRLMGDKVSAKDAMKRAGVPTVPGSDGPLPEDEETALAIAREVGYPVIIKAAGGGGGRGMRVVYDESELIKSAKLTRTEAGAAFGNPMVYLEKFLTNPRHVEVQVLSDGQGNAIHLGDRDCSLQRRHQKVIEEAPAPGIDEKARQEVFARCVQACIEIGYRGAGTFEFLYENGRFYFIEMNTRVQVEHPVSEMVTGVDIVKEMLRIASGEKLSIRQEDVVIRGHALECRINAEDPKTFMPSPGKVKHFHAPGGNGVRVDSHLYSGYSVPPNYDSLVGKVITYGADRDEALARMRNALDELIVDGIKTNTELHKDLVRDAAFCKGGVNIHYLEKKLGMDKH

Row | SMILES | MIC E. coli (ΔtolC) [3] | MIC P. aeruginosa (ΔmexAB, etc.) [4] | MIC E. coli (ΔtolC) +PMBN [3] | also measured
1 | NCC1CCN(c2nc3nc(N)ncc3cc2-c2c(Cl)cccc2Cl)C1 (stereo not drawn) [13f, 7-[3-(aminomethyl)pyrrolidin-1-yl]-6-(2,6-dichlorophenyl)pyrido[2,3-d]pyrimidin-2-amine] |  |  |  | improvement in BC inhibition (IC50) compared to 4a [1]: 5 fold; cytological profile [2]: cytological profiles very similar to each other and to parent compound 1
2 | Nc1ncc2cc(-c3c(Cl)cccc3Cl)c(N3CCC(N)(CO)C3)nc2n1 (stereo not drawn) [13c, [3-amino-1-[2-amino-6-(2,6-dichlorophenyl)pyrido[2,3-d]pyrimidin-7-yl]pyrrolidin-3-yl]methanol] | 1 µg/mL (≈ 2.47 µM) |  |  | 
3 | Cc1ncc(-c2cccc(Cl)c2-c2cc3cnc(N)nc3nc2N2C[C@@H]3[C@@H](N)[C@@H]3C2)s1 [14d, 7-[(1R,5S)-6-amino-3-azabicyclo[3.1.0]hexan-3-yl)-6-[2-chloro-6-(2-methylthiazol-5-yl)phenyl]pyrido[2,3-d]pyrimidin-2-amine] | 0.008 µg/mL (≈ 0.0178 µM) | 1 µg/mL (≈ 2.22 µM) |  | 
4 | NCC1(O)CCN(c2nc3nc(N)ncc3cc2-c2c(Cl)cccc2Cl)C1 (stereo not drawn) [13e, 1-[2-amino-6-(2,6-dichlorophenyl)pyrido[2,3-d]pyrimidin-7-yl]-3-(aminomethyl)pyrrolidin-3-ol] | 1 µg/mL (≈ 2.47 µM) | >64 µg/mL |  | 
5 | CC(C)COc1cccc(Cl)c1-c1cc2cnc(N)nc2nc1N1C[C@@H]2[C@@H](N)[C@@H]2C1 [14e, 7-[(1R,5S)-6-amino-3-azabicyclo[3.1.0]hexan-3-yl)-6-(2-chloro-6-isobutoxy-phenyl)pyrido[2,3-d]pyrimidin-2-amine] | 0.03 µg/mL (≈ 0.0706 µM) |  | 0.015 µg/mL (≈ 0.0353 µM) | potency reduction by any mexT mutation [5]: unaffected; cytological profile [2]: cytological profiles very similar to each other and to parent compound 1
6 | CC(C)COc1cccc(Cl)c1-c1cc2cnc(N)nc2nc1N [4f, 6-(2-chloro-6-isobutoxy-phenyl)pyrido[2,3-d]pyrimidine-2,7-diamine] | 0.25 µg/mL (≈ 0.727 µM) |  |  | 
7 | Nc1ncc2cc(-c3c(Br)cccc3Br)c(N)nc2n1 [compound 1, reference compound] | 0.5 µg/mL (≈ 1.27 µM) | 16 µg/mL (≈ 40.5 µM) | 0.12 µg/mL (≈ 0.304 µM) | potency reduction by any mexT mutation [5]: > 8 fold; pKa [6]: 4.8
8 | Nc1ncc2cc(-c3ccccc3-c3ccccc3)c(N)nc2n1 [4b, 6-([1,1'-biphenyl]-2-yl)pyrido[2,3-d]pyrimidine-2,7-diamine] | 0.5 µg/mL (≈ 1.6 µM) |  | 0.25 µg/mL (≈ 0.798 µM) | 
9 | Nc1ncc2cc(-c3c(Cl)cccc3-c3cccnc3)c(N)nc2n1 [4d, 6-[2-chloro-6-(3-pyridyl)phenyl]pyrido[2,3-d]pyrimidine-2,7-diamine] |  | 4 µg/mL (≈ 11.5 µM) |  | 
10 | NCC1CCN(c2nc3nc(N)ncc3cc2-c2c(Cl)cccc2Cl)CC1 [13g, 7-[4-(aminomethyl)-1-piperidyl]-6-(2,6-dichlorophenyl)pyrido[2,3-d]pyrimidin-2-amine] | 1 µg/mL (≈ 2.48 µM) | 64 µg/mL (≈ 159 µM) |  | 
11 | O=C(O)c1cn(C2CC2)c2cc(N3CCNCC3)c(F)cc2c1=O [ciprofloxacin, reference compound] |  |  |  | resistance of mexT mutants to the antibiotic ([5]; data not shown): elevated resistance
12 | Nc1ncc2cc(-c3c(Cl)cccc3Cl)c(N3C[C@@H]4[C@@H](N)[C@@H]4C3)nc2n1 [13h, 7-((1R,5S,6s)-6-amino-3-azabicyclo[3.1.0]hexan-3-yl)-6-(2,6-dichlorophenyl)pyrido[2,3-d]pyrimidin-2-amine] |  |  |  | improvement in BC inhibition (IC50) compared to 4a [1]: ~10 fold
13 | NCC1(F)CCN(c2nc3nc(N)ncc3cc2-c2c(Cl)cccc2Cl)C1 (stereo not drawn) [13d, 7-[3-(aminomethyl)-3-fluoro-pyrrolidin-1-yl]-6-(2,6-dichlorophenyl)pyrido[2,3-d]pyrimidin-2-amine] |  |  | 1 µg/mL (≈ 2.46 µM) | 
14 | Nc1ncc2cc(-c3c(Cl)cccc3Cl)c(N)nc2n1 [4a] | 0.5 µg/mL (≈ 1.63 µM) | 16 µg/mL (≈ 52.3 µM) | 0.25 µg/mL (≈ 0.817 µM) | 
15 | COc1ncc(-c2cccc(Cl)c2-c2cc3cnc(N)nc3nc2N2C[C@@H]3[C@@H](N)[C@@H]3C2)cc1F [14c, 7-[(1R,5S)-6-amino-3-azabicyclo[3.1.0]hexan-3-yl)-6-[2-chloro-6-(5-fluoro-6-methoxy-3-pyridyl)phenyl]pyrido[2,3-d]pyrimidin-2-amine] | 0.015 µg/mL (≈ 0.0314 µM) | 2 µg/mL (≈ 4.18 µM) | 0.008 µg/mL (≈ 0.0167 µM) | 
16 | Nc1ncc2cc(-c3c(Cl)cccc3-c3ccncc3)c(N3C[C@@H]4[C@@H](N)[C@@H]4C3)nc2n1 [14b, 7-[(1R,5S)-6-amino-3-azabicyclo[3.1.0]hexan-3-yl)-6-[2-chloro-6-(4-pyridyl)phenyl]pyrido[2,3-d]pyrimidin-2-amine] | 0.03 µg/mL (≈ 0.0698 µM) | 2 µg/mL (≈ 4.65 µM) | 0.015 µg/mL (≈ 0.0349 µM) | 
17 | Nc1ncc2cc(-c3c(Cl)cccc3-c3cccnc3)c(N3C[C@@H]4[C@@H](N)[C@@H]4C3)nc2n1 [14a, 7-[(1R,5S)-6-amino-3-azabicyclo[3.1.0]hexan-3-yl)-6-[2-chloro-6-(3-pyridyl)phenyl]pyrido[2,3-d]pyrimidin-2-amine] | 0.03 µg/mL (≈ 0.0698 µM) |  |  | potency reduction by any mexT mutation [5]: unaffected
18 | Nc1ncc2cc(-c3ccccc3-c3cccnc3)c(N)nc2n1 [4c, 6-[2-(3-pyridyl)phenyl]pyrido[2,3-d]pyrimidine-2,7-diamine] | 2 µg/mL (≈ 6.36 µM) | 16 µg/mL (≈ 50.9 µM) | 0.5 µg/mL (≈ 1.59 µM) | 

Source: article PMC6980355 (Journal of medicinal chemistry, 2019)
